Each structure is given as a SMILES string.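 Compound exposure: 48 hours, 5 concentrations, 96-well plates. Here, GI50 denotes the concentration required for 50% inhibition of growth.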 Active and inactive are the calls of the source. Rule as the data show it: active = GI50 up to about 1.1 µM and inactive = higher.

Test systems include A549; CAKI-1; EKVX; HCC 2998; HCT-15; Hs-578T; LOX IMVI; M14; MCF7; NCI-H460; OVCAR-3; OVCAR-5; PC-3; RXF 393; SK-MEL-2; SNB-75; U-251; HOP-92.
Test in all cases: DTP human tumour cell line panel, 48 h

Take `O=C1OCC(CN2CCC(n3c(=O)[nH]c4ccccc43)CC2)=C1c1ccccc1`: the GI50 (in general, the concentration that inhibits growth by half) in the assay with A549 was 30.1 µM (inactive); with CAKI-1 it was 22.9 µM (inactive); in the assay on EKVX, 25.9 µM (inactive); with HCC 2998, 23.8 µM (inactive); in the assay with HCT-15 it was 23 µM; with Hs-578T, 30 µM (inactive). Further, the GI50 in the assay with LOX IMVI was 21.4 µM (inactive); in the assay on M14, 18.3 µM (inactive); with MCF7, 28.2 µM (inactive); with NCI-H460, 6.78 µM (inactive); with OVCAR-3, 24.7 µM (inactive); in the assay with OVCAR-5, 41 µM (inactive). In addition, the GI50 with PC-3 was 19 µM (inactive); in the assay with RXF 393, 34.8 µM (inactive); in the assay with SK-MEL-2, 19.8 µM (inactive); in the assay on SNB-75 it was 28.2 µM (inactive); with U-251, 35.5 µM (inactive).
Take `O=C(O)CCc1ccc2c(c1)CC1(Cc3ccccc3C1)C2`: the GI50 is > 100 µM (inactive) in the assay on A549; > 100 µM (inactive) in the assay on EKVX; > 100 µM (inactive) in the assay with HCC 2998; > 100 µM in the assay on HCT-15; > 100 µM (inactive) with HOP-92; > 100 µM (inactive) in the assay on Hs-578T. Further, the GI50 in the assay on LOX IMVI, in the assay with M14, in the assay on MCF7, with OVCAR-3, in the assay with OVCAR-5 and with PC-3 was > 100 µM (inactive) in each case. The GI50 in the assay with RXF 393 was > 100 µM (inactive); with SK-MEL-2, > 100 µM (inactive); in the assay with SNB-75, < 0.01 µM (active); in the assay on U-251, > 100 µM (inactive).
`O=C(COc1ccc2c(=O)cc(-c3ccc(Cl)cc3)oc2c1)N1CCN(c2ccccc2)CC1`: the GI50 in the assay on A549 is 48.9 µM (inactive); in the assay with CAKI-1, > 100 µM (inactive); with EKVX it was > 100 µM (inactive); in the assay on HCC 2998 it was > 100 µM (inactive); in the assay on HCT-15, > 100 µM; with HOP-92, 64.1 µM (inactive). Moreover, the GI50 in the assay with LOX IMVI, with M14, with NCI-H460, with OVCAR-3, with OVCAR-5 and in the assay with RXF 393 was > 100 µM (inactive) in each case. Further, the GI50 in the assay on SK-MEL-2, with SNB-75 and with U-251 was > 100 µM (inactive) throughout.
On to `OC(c1ccccc1)c1c(-c2ccccc2)oc(-c2ccccc2)c1C(O)c1ccccc1` (configuration not stated), for which the GI50 in the assay with A549 is 5.73 µM (inactive); in the assay on CAKI-1, 15.2 µM (inactive); in the assay on EKVX it was 5.75 µM (inactive); in the assay on HCC 2998, 16.8 µM (inactive); in the assay on HCT-15, 12.1 µM; in the assay with HOP-92, 13.4 µM (inactive). The GI50 in the assay on Hs-578T is 13.5 µM (inactive); with LOX IMVI, 11.1 µM (inactive); with M14, 10 µM (inactive); in the assay on MCF7, 4.37 µM (inactive); in the assay with NCI-H460, 8.15 µM (inactive); in the assay with OVCAR-3 it was 5.73 µM (inactive). The GI50 was 15.6 µM (inactive) with OVCAR-5; 9.33 µM (inactive) with PC-3; 6.5 µM (inactive) in the assay with RXF 393; 14.2 µM (inactive) with SK-MEL-2; 14 µM (inactive) in the assay on U-251.
For `COc1ccc(-n2c(=O)[nH]n(C(C)=O)c2=O)cc1`, the GI50 with A549 is > 100 µM (inactive); in the assay with CAKI-1, > 100 µM (inactive); in the assay with EKVX it was > 100 µM (inactive); with HCT-15, > 100 µM; in the assay on HOP-92, > 100 µM (inactive); in the assay on Hs-578T it was > 100 µM (inactive). Moreover, the GI50 in the assay with LOX IMVI, in the assay on M14, in the assay with MCF7, in the assay on NCI-H460, in the assay with OVCAR-5 and in the assay on PC-3 was > 100 µM (inactive) each time. For the same molecule, the GI50 in the assay on RXF 393, with SK-MEL-2, with SNB-75 and in the assay on U-251 was > 100 µM (inactive) throughout.
As for `O=c1c(F)cn2c(=O)n1CCCCCCCn1c(=O)c(F)cn(c1=O)CCCCCCC2`, the GI50 was > 100 µM (inactive) in the assay with A549; 78.3 µM (inactive) in the assay on CAKI-1; > 100 µM (inactive) in the assay with EKVX; > 100 µM (inactive) in the assay with HCC 2998; > 100 µM with HCT-15; 57.7 µM (inactive) in the assay on HOP-92. Moreover, the GI50 was > 100 µM (inactive) in the assay with LOX IMVI; 36.1 µM (inactive) in the assay with M14; > 100 µM (inactive) in the assay on MCF7; > 100 µM (inactive) in the assay on NCI-H460; 61.7 µM (inactive) with OVCAR-3; > 100 µM (inactive) with OVCAR-5. The GI50 with PC-3 was > 100 µM (inactive); in the assay on RXF 393, 39.1 µM (inactive); with SK-MEL-2, > 100 µM (inactive); in the assay on SNB-75, 0.105 µM (active); with U-251 it was > 100 µM (inactive).
For the molecule `CCOC(=O)[C@@H]1ON2O[C@H](OC3CCCC3(c3ccccc3)c3ccccc3)C[C@H]3OC(=O)[C@@H]1C32` (some centres not stated), the GI50 was 27.8 µM (inactive) with A549; 22.9 µM (inactive) in the assay with CAKI-1; > 100 µM (inactive) in the assay on EKVX; 52.1 µM (inactive) with HCC 2998; 48.3 µM in the assay on HCT-15; 95.7 µM (inactive) in the assay on HOP-92. Besides, the GI50 is 49.4 µM (inactive) in the assay on Hs-578T; 27.2 µM (inactive) in the assay with LOX IMVI; 45.3 µM (inactive) in the assay on M14; 34.4 µM (inactive) with MCF7; 34 µM (inactive) with NCI-H460; 40.9 µM (inactive) with OVCAR-3. Moreover, the GI50 in the assay on OVCAR-5 was > 100 µM (inactive); with RXF 393, 11.1 µM (inactive); in the assay on SNB-75 it was 71.4 µM (inactive); with U-251, 52.4 µM (inactive).
As for `CC1CN=C(N(C(=O)Nc2ccc(F)c(Cl)c2)c2ccccc2)S1` (configuration not stated), the GI50 with A549 is 24.2 µM (inactive); in the assay with CAKI-1, 21 µM (inactive); in the assay on EKVX, 22 µM (inactive); in the assay on HCT-15, 22.4 µM; in the assay with HOP-92 it was 20.3 µM (inactive); in the assay on Hs-578T, 38.5 µM (inactive). Further, the GI50 was 17.5 µM (inactive) in the assay on LOX IMVI; 28.4 µM (inactive) in the assay on M14; 10.4 µM (inactive) with MCF7; 25.4 µM (inactive) in the assay with NCI-H460; 34.5 µM (inactive) in the assay with OVCAR-3; 28.2 µM (inactive) in the assay with OVCAR-5. Further, the GI50 was 24.1 µM (inactive) in the assay with PC-3, 17.5 µM (inactive) in the assay with SK-MEL-2, 23.2 µM (inactive) in the assay on SNB-75 and 20.6 µM (inactive) in the assay with U-251.
Regarding `O=C(/C=C/c1ccc(O)c(O)c1)OCc1ccccc1` [BENZYL CAFFEATE], the GI50 was 19.2 µM (inactive) with A549; 27 µM (inactive) in the assay with CAKI-1; 29.7 µM (inactive) in the assay on EKVX; 36.6 µM (inactive) in the assay on HCC 2998; 5.4 µM with HCT-15; 16.2 µM (inactive) in the assay on HOP-92. For the same molecule, the GI50 in the assay on Hs-578T is 9.71 µM (inactive); with LOX IMVI it was 15.5 µM (inactive); in the assay with M14 it was 11.1 µM (inactive); in the assay on MCF7 it was 7.8 µM (inactive); in the assay on NCI-H460, 12.8 µM (inactive); with OVCAR-3, 11 µM (inactive). Also, the GI50 with OVCAR-5 is 29.5 µM (inactive); in the assay on PC-3 it was 18 µM (inactive); with RXF 393 it was 16.8 µM (inactive); in the assay on SK-MEL-2, 13.4 µM (inactive); in the assay on U-251, 14.5 µM (inactive).

The values are drawn from ChEMBL document CHEMBL1201862, “PubChem BioAssay data set” (2004).
